In PubChem BioAssay (NCI):
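Following 48 hours of exposure in 96-well plates, responses at five concentrations were used to interpolate endpoints linearly. GI50 is the concentration that inhibits growth by half. Definition used: TGI = concentration required for complete inhibition of growth.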

Tests used:
Experiment in all cases: NCI tumour cell line growth inhibition, 48 h
[1] = test system: 786-0 renal
[2] = test system: A498 renal
[3] = test system: A549 NSCLC
[4] = test system: BT-549 breast
[5] = test system: CCRF-CEM leukemia
[6] = test system: DU-145 prostate
[7] = test system: EKVX NSCLC
[8] = test system: HCC-2998 colon
[9] = test system: HCT-116 colon
[10] = test system: HCT-15 colon
[11] = test system: HL-60(TB) leukemia
[12] = test system: HOP-62 NSCLC
[13] = test system: HOP-92 NSCLC
[14] = test system: HS 578T breast
[15] = test system: HT29 colon
[16] = test system: IGROV1 ovarian
[17] = test system: K-562 leukemia
[18] = test system: KM12 colon
[19] = test system: LOX IMVI melanoma
[20] = test system: M14 melanoma
[21] = test system: MALME-3M melanoma
[22] = test system: MCF7 breast
[23] = test system: MDA-MB-231 breast
[24] = test system: MDA-MB-435
[25] = test system: MOLT-4 leukemia
[26] = test system: NCI-H226 lung
[27] = test system: NCI-H23 lung
[28] = test system: NCI-H460 lung
[29] = test system: NCI-H522 lung
[30] = test system: NCI/ADR-RES ovarian
[31] = test system: OVCAR-3 ovarian
[32] = test system: OVCAR-4 ovarian
[33] = test system: OVCAR-5 ovarian
[34] = test system: OVCAR-8 ovarian
[35] = test system: PC-3 prostate
[36] = test system: RPMI-8226 leukemia
[37] = test system: RXF 393 renal
[38] = test system: SF-268 CNS
[39] = test system: SF-295 CNS
[40] = test system: SF-539 CNS
[41] = test system: SK-MEL-2 melanoma
[42] = test system: SK-MEL-28 melanoma
[43] = test system: SK-MEL-5 melanoma
[44] = test system: SK-OV-3 ovarian
[45] = test system: SN12C renal
[46] = test system: SNB-19 CNS
[47] = test system: SNB-75 CNS
[48] = test system: SR leukemia
[49] = test system: SW-620 colon
[50] = test system: T-47D breast
[51] = test system: TK-10 renal
[52] = test system: U251 CNS
[53] = test system: UACC-257 melanoma
[54] = test system: UACC-62 melanoma
[55] = test system: UO-31 renal

`C[C@@]1(c2ncncc2F)NC(=O)c2cc(-c3cn[nH]c3)ccc21` gave a GI50 [1] of 23.6 µM, a TGI [1] of 91.1 µM and a GI50 [2] of 14.4 µM. For the same compound, the TGI [2] was 50.5 µM, the GI50 [3] was 28.2 µM and the TGI [3] was over 100 µM. It also gave a GI50 [4] of 11.8 µM, a TGI [4] of 49.3 µM and a GI50 [5] of 42.3 µM. It also gave a TGI [5] of over 100 µM, a GI50 [6] of 28.8 µM and a TGI [6] of over 100 µM. For the same compound, the GI50 [7] was 22.1 µM, the TGI [7] was over 100 µM and the GI50 [8] was 22.9 µM. It also gave a TGI [8] of over 100 µM, a GI50 [9] of 5.48 µM and a TGI [9] of over 100 µM. For the same compound, the GI50 [10] was 20.8 µM, the TGI [10] was over 100 µM and the GI50 [11] was 15.8 µM. For the same compound, the TGI [11] was 60.4 µM, the GI50 [12] was 18.7 µM and the TGI [12] was over 100 µM. The GI50 [13] was 22.6 µM, the TGI [13] was 88.5 µM and the GI50 [14] was 23 µM. For the same compound, the TGI [14] was over 100 µM, the GI50 [15] was 7.46 µM and the TGI [15] was 90.9 µM. It also gave a GI50 [16] of 21.4 µM, a TGI [16] of over 100 µM and a GI50 [17] of 46.8 µM. The TGI [17] was over 100 µM, the GI50 [18] was 29.6 µM and the TGI [18] was over 100 µM. For the same compound, the GI50 [19] was 8.23 µM, the TGI [19] was over 100 µM and the GI50 [20] was 15.2 µM. The TGI [20] was 77.7 µM, the GI50 [21] was 12.9 µM and the TGI [21] was 68.4 µM. The GI50 [22] was 21 µM, the TGI [22] was over 100 µM and the GI50 [23] was 27.6 µM. The TGI [23] was 89.5 µM, the GI50 [24] was 19.9 µM and the TGI [24] was over 100 µM. The GI50 [25] was 26.5 µM, the TGI [25] was over 100 µM and the GI50 [26] was 20.1 µM. The TGI [26] was over 100 µM, the GI50 [27] was 18.7 µM and the TGI [27] was over 100 µM. The GI50 [28] was 25 µM, the TGI [28] was over 100 µM and the GI50 [29] was 13.1 µM. For the same compound, the TGI [29] was over 100 µM, the GI50 [30] was 37.9 µM and the TGI [30] was over 100 µM. It also gave a GI50 [31] of 21.9 µM, a TGI [31] of over 100 µM and a GI50 [32] of 38.5 µM. It also gave a TGI [32] of over 100 µM, a GI50 [33] of 22.4 µM and a TGI [33] of 99 µM. The GI50 [34] was 26.9 µM, the TGI [34] was over 100 µM and the GI50 [35] was 27.2 µM. It also gave a TGI [35] of over 100 µM, a GI50 [36] of 31 µM and a TGI [36] of 95.2 µM. For the same compound, the GI50 [37] was 15.2 µM, the TGI [37] was 37.3 µM and the GI50 [38] was 28.4 µM. The TGI [38] was over 100 µM, the GI50 [39] was 29.4 µM and the TGI [39] was over 100 µM. The GI50 [40] was 5.61 µM, the TGI [40] was 32.7 µM and the GI50 [41] was 23.8 µM. The TGI [41] was 68.2 µM, the GI50 [42] was 11.7 µM and the TGI [42] was 73.4 µM. For the same compound, the GI50 [43] was 20 µM, the TGI [43] was over 100 µM and the GI50 [44] was 18.5 µM. For the same compound, the TGI [44] was 76 µM, the GI50 [45] was 26.5 µM and the TGI [45] was over 100 µM. The GI50 [46] was 31.9 µM, the TGI [46] was over 100 µM and the GI50 [47] was 4.45 µM. The TGI [47] was 40.3 µM, the GI50 [48] was 15.6 µM and the TGI [48] was over 100 µM. It also gave a GI50 [49] of 6.79 µM, a TGI [49] of over 100 µM and a GI50 [50] of 27.9 µM. The TGI [50] was over 100 µM, the GI50 [51] was 10.9 µM and the TGI [51] was 58.3 µM. For the same compound, the GI50 [52] was 29.4 µM, the TGI [52] was over 100 µM and the GI50 [53] was 30.3 µM. The TGI [53] was 98.7 µM, the GI50 [54] was 18.8 µM and the TGI [54] was 70.6 µM. For the same compound, the GI50 [55] was 17.2 µM and the TGI [55] was 72.8 µM.
